*1 amine or outer side, *2 acyl side, *3 side chain or, on linkers, in order; H or OH if unused. Where no end group is shown, it is not given here. [ ]: non-standard residue; d: D form. The star is where a group is joined. FITC = O=C1OC2(c3ccc(O)cc3Oc3cc(O)ccc32)c2ccc(NC(=S)*)cc21; Cys(Me) = CSC[C@H](N[*:1])C(=O)[*:2]; AEA = NCCOCC(=O)O
Tests used:
[1] = test system: MMP2-predigested collagen IV; experiment: In vitro binding to MMP2-predigested collagen IV coated glass slides; set-up: species or system human; settings: for FITC signal on MMP2-predigested collagen IV coated glass slide: 0.1 mg/ml, room temperature
Procedure: (§1) T-peptide-FITC (Alexa 488) and control peptide-FITC conjugates, as well as the unlabelled T-peptide-LPETG peptide, were commercially synthesized (GL Biochem. Shanghai, China) using solid phase peptide synthesis, as described elsewhere herein. The concentration of the synthesized peptides were all at 1 mg/ml.
Binding to MMP2 digested collagen IV Collagen IV was applied to glass slides coated with polylysine. 1. Polylysine (MW of 30,000-70,000) at 0.1 mg/ml in 0.15 M borate buffer (pH 8.3) was prepared and filtered with […] pore size membrane syringe filter (Millex® Syringe Filter, Millipore). 2. Collagen IV (collagen type IV from human fibroblast culture, Sigma. Aldrich) was diluted to 1:10 with Hank's Balanced Salt Solution (HBSS) to 0.04 mg/ml. 3. For MMP2 digestion, Active recombinant human MMP2 enzyme (expressed in CHO cells) was purchased from Calbiochem. MMP2 stock solution was diluted with PBS to create 0.01 μg/μl MMP2 concentration according to manufacturer's recommendations. 4. For T-peptide-HTC testing using added MMP2, 20 μl of polylysine was spotted on several glass slides and left overnight at room temperature to dry. This forms a coating base for collagen to adhere to subsequently. 5. To predigest some collagen IV with MMP2, 3 μl of (0.1 mg/ml ) MMP2 was mixed with 35.8 μl of diluted collagen IV solution with 1.2 μl of 100 mM CaCl2 (3 mM Calcium final concentration) in an Eppendorf tube and incubated at 37° C. shaking at 600 rpm in an Eppendorf Thermomixer for 2 hours. 6. To create intact collagen IV coated slides, […] of diluted collagen IV solution was dropped onto the dried polylysine spot on the slide. 7. To create MMP2 predigested collagen IV coated slides, […] predigested collagen IV was dropped onto the dried polylysine spot on the glass slide. 8. The slides with collagen IV were dried uncovered overnight before testing. 9. Next day, […] of T-peptide-FITC (0.1 mg/ml) was added to the MMP2 predigested collagen spot, […] of T-peptide-FITC (0.1 mg/ml) was added to the intact collagen slide, and […] Control peptide-FITC (0.1mg/ml) was added to the MMP2 predigested collagen slide and the slides were incubated in a covered humidified box with wet paper towels at room temperature for 60 minutes. 10. For the ‘blocked epitope’ slide, […] of unlabelled T-peptide-LPETG (0.1 mg/ml) was added to the MMP2 predigested collagen slide and incubated similarly for 60 minutes. This step binds the epitopes present on the collagen IV and prevents further binding with the FITC labelled T-peptide. Next, […] of T-peptide-FITC (0.1 mg/ml) was added to the same area and incubated for 60 minutes. 11. All the treated slides were examined under fluorescence microscopy (IX81 Olympus microscope).

[2] = test system: unstable plaque (right common carotid artery segment 1); experiment: In vivo binding to unstable plaque after intravenous administration to tandem stenosis mice; set-up: species or system mouse; settings: tandem stenosis ApoE-/- mice, bolus plus infusion into jugular vein, tissue taken 30 minutes after administration
Procedure: (§2) The T-peptide-FITC (Alexa 488) and its control scrambled peptide Con-peptide-FITC were commercially synthesized (GL Biochem. Shanghai China) using solid phase peptide synthesis, as described elsewhere herein. The concentration of the synthesized peptides were all at 1 mg/ml,
(§3) Each mouse with an average weight of 25 g, would receive […] of T-peptide-FITC or […] of Con-peptide-FITC diluted 1:2 to give concentration of 0.5 mg/ml, which works out to be […] body weight, […] of the diluted peptide will be given as a bolus into the left external jugular vein and the remaining […] by infusion at a rate of […] using an infusion pump connected to a plastic catheter inserted into the left external jugular vein. The method of bolus dose followed by infusion is to optimize the blood level and duration of the circulating peptide to enhance plaque entry and vascular tissue retention of the peptide, since the small molecular weight of the peptide is at risk of rapid clearance through the kidneys. […]
(§4) The frozen section slides were thawed for 30 minutes at room temperature before examination under the fluorescence microscope (IX81 Olympus microscope) in the FITC 488 nm channel.

[3] = test system: unstable plaque in the mouse carotid artery; experiment: Ex vivo binding to frozen sections of tandem stenosis mouse carotid unstable plaques; settings: 0.1 mg/ml conjugate, 60 minutes, FITC channel fluorescence microscopy
Procedure: (§5) Conjugates of T-peptide (TLTYTWS)-FITC (Alexa 488) and control peptide (Con-peptide)-FITC were commercially synthesized (GL Biochem, Shanghai China) using solid phase peptide synthesis, as described above. The concentration of the synthesized peptide-FITC conjugates was 1 mg/ml.
(§6) At 12 weeks of age and 6 weeks after commencement of high fat diet, ApoE−/− mice (C57BL/6J background) were anaesthetized by intraperitoneal injection of a mixture of ketamine (100 mg/kg) and xylazine (10 mg/kg). An incision was made in the neck and the right common carotid artery exposed by dissecting away circumferential connective tissue. A tandem stenosis with 150 μm outer diameter was introduced with the distal stenosis placed 1 mm from the carotid artery bifurcation and the proximal stenosis 3 mm from the distal stenosis. A 6-0 blue braided polyester fibre suture was tied around the carotid artery and a 150 μm needle to achieve the stenosis diameter of 150 μm and the needle was subsequently removed after the suture was secured. The incision wound was sutured close and the mice resumed their high fat diet. […]
(§7) Frozen […] tissue sections of tandem stenosis mouse carotid unstable plaques and aortic arch stable plaques on glass slides were thawed for 30 minutes at room temperature. […] The slides were then examined by fluorescence microscopy (IX81 Olympus microscope) in the FITC 488 nm channel.

[4] = test system: areas of localised fibrosis in the myocardium; experiment: Ex vivo binding to infarcted mouse myocardium (LAD occlusion); settings: ex vivo sections of infarcted mouse hearts 6 weeks after LAD ligation
Procedure: To assess whether labelled T-peptide can bind to fibrotic myocardium, a mouse model of myocardial infarction (via left anterior descending coronary artery (LAD) occlusion) was used. This model reflects a very defined area of fibrosis in the infarct zone.
Mice were anaesthetised, the LAD ligated with a suture, and the thorax closed. After 60 mins the suture was removed. After 6 weeks and the development of fibrosis, parts of the infarcted hearts were sectioned and incubated with the T-peptide-FITC and control (s)-peptide-FITC constructs.

[5] = test system: stable aortic arch plaques; experiment: Ex vivo binding to frozen sections of stable aortic arch plaques; set-up: species or system mouse; settings: 0.1 mg/ml conjugate, 60 minutes, FITC channel fluorescence microscopy
Procedure: as §5, §6, §7

intact collagen IV = experiment: In vitro binding to undigested collagen IV coated glass slides; set-up: species or system human; settings: 0.1 mg/ml, 60 minutes, room temperature
Procedure: as §1
Binding to MMP2 digested collagen IV Collagen IV was applied to glass slides coated with polylysine. 1. Polylysine (MW of 30,000-70,000) at 0.1 mg/ml in 0.15 M borate buffer (pH 8.3) was prepared and filtered with […] pore size membrane syringe filter (Millex® Syringe Filter, Millipore). 2. Collagen IV (collagen type IV from human fibroblast culture, Sigma. Aldrich) was diluted to 1:10 with Hank's Balanced Salt Solution (HBSS) to 0.04 mg/ml. 3. For MMP2 digestion, Active recombinant human MMP2 enzyme (expressed in CHO cells) was purchased from Calbiochem. MMP2 stock solution was diluted with PBS to create 0.01 μg/μl MMP2 concentration according to manufacturer's recommendations. 4. For T-peptide-HTC testing using added MMP2, 20 μl of polylysine was spotted on several glass slides and left overnight at room temperature to dry. This forms a coating base for collagen to adhere to subsequently. 5. […] All the treated slides were examined under fluorescence microscopy (IX81 Olympus microscope).

[6] = test system: stable plaque (aortic arch segment 5); experiment: In vivo binding to stable aortic arch plaque after intravenous administration to tandem stenosis mice; set-up: species or system mouse; settings: tandem stenosis ApoE-/- mice, bolus plus infusion into jugular vein, tissue taken 30 minutes after administration
Procedure: as §2, §3, §4

Substance	blocking of T-peptide-FITC binding to MMP2-predigested collagen IV ([1]; preincubation 0.1 mg/ml, 60 minutes)	binding to MMP2-predigested collagen IV fibres with additional amino acids at the N terminus [1]	binding to the unstable plaque following intravenous administration [2]	binding to unstable plaque (fluorescent signal) [3]	binding to fibrotic myocardium [4]	FITC signal on MMP2-predigested collagen IV coated glass slide ([1]; 60 minutes)	binding to stable plaque (fluorescent signal) [5]	FITC signal on undigested collagen IV coated glass slide (intact collagen IV)	FITC signal on MMP2-predigested collagen IV slide preincubated with unlabelled T-peptide ([1]; blocked epitope slide: unlabelled T-peptide-LPETG 0.1 mg/ml 60 minutes, then T-peptide-FITC 0.1 mg/ml 60 minutes)	binding to the stable aortic arch plaque after intravenous administration [6]
HTLTYTWSGGGLPETGGHHHHHH-OH [T-peptide-LPETG]	blocked binding									
GGGWWSSASPAATLTYTWSGLPAPASPA-eeeeeeee-(Aop)-PLGC(Me)AG-rrrrrrrrr-GAGAPAC (GGGWWSSASPAATLTYTWSGLPAPASPA[dE][dE][dE][dE][dE][dE][dE][dE][AEA]PLG[Cys(Me)]AG[dR][dR][dR][dR][dR][dR][dR][dR][dR]GAGAPAC) [GGG-T-peptide-ACPP-cysteine]		did not reduce or eliminate binding								
H-GLGYGWSGK(FITC)-OH (SMILES CC(C)C[C@H](NC(=O)CN)C(=O)NCC(=O)N[C@@H](Cc1ccc(O)cc1)C(=O)NCC(=O)N[C@@H](Cc1c[nH]c2ccccc12)C(=O)N[C@@H](CO)C(=O)NCC(=O)N[C@@H](CCCCNC(=S)Nc1ccc2c(c1)C(=O)OC21c2ccc(O)cc2Oc2cc(O)ccc21)C(=O)O) [control peptide-FITC conjugate, reference compound]			no evidence of binding	no significant binding	no evidence of binding	no FITC signal				
H-TLTYTWSGK(FITC)-OH (SMILES CC(C)C[C@H](NC(=O)[C@@H](N)[C@@H](C)O)C(=O)N[C@H](C(=O)N[C@@H](Cc1ccc(O)cc1)C(=O)N[C@H](C(=O)N[C@@H](Cc1c[nH]c2ccccc12)C(=O)N[C@@H](CO)C(=O)NCC(=O)N[C@@H](CCCCNC(=S)Nc1ccc2c(c1)C(=O)OC21c2ccc(O)cc2Oc2cc(O)ccc21)C(=O)O)[C@@H](C)O)[C@@H](C)O) [T-peptide-FITC conjugate]			strong binding	strong fluorescent signal within the lumen	binds specifically to areas of localised fibrosis in the myocardium	strong FITC signal	no fluorescent signal within the vascular lumen	no FITC signal	no significant FITC signal	no binding

— patent publication US20190321496A1, “AGENTS AND METHODS FOR THE DIAGNOSIS AND TREATMENT OF DISEASES ASSOCIATED WITH EXTRACELLULAR MATRIX TURNOVER” (Baker IDI Heart and Diabetes Institute Holdings Limited, priority 2016, published 2019)
